From patent US20100120886A1, “ARYL-SUBSTITUTED SULFONAMIDES FOR THE TREATMENT OF COGNITIVE OR FOOD INGESTION RELATED DISORDERS” (LABORATORIOS DEL DR. ESTEVE, S.A., priority 2007, published 2010)

Target: T1, 5HT6 human recombinant receptor (Homo sapiens, UniProt P50406)
T1 construct: purchased Receptor Biology; host or cells: HEK-293 cell membranes
Experiment: Binding with Serotonin Receptor 5HT6 ([3H]-LSD radioligand, HEK-293 cell membranes)
Details: [3H]-LSD 2.7 nM, HEK-293 membranes; for Ki: non-linear regression EBDA/LIGAND; for inhibition at 0.01 µM: compound 10 nM; for inhibition at 0.01 µM / inhibition at 0.1 µM: 60 min, 37° C.; for inhibition at 0.1 µM: compound 100 nM
Procedure: Binding with Serotonin Receptor 5HT6
Cell membranes of HEK-293 cells expressing the 5HT6 human recombinant receptor were supplied by Receptor Biology. In said membranes the receptor concentration is 2.18 pmol/mg protein and the protein concentration is 9.17 mg/ml. The experimental protocol follows the method of B. L. Roth et al. [B. L. Roth, S. C. Craigo, M. S. Choudhary, A. Uluer, F. J. Monsma, Y. Shen, H. Y. Meltzer, D. R. Sibley: Binding of Typical and Atypical Antipsychotic Agents to 5-Hydroxytryptamine-6 and Hydroxytriptamine-7 Receptors. The Journal of Pharmacology and Experimental Therapeutics, 1994, 268, 1403] with slight changes. The commercial membrane is diluted (1:40 dilution) with the binding buffer: 50 mM Tris-HCl, 10 mM MgCl2, 0.5 mM EDTA (pH 7.4). The radioligand used is [^3H]-LSD at a concentration of 2.7 nM with a final volume of 200 μl. incubation is initiated by adding 100 μl of membrane suspension, (≈22.9 μg membrane protein), and is prolonged for 60 minutes at a temperature of 37° C. The incubation is ended by fast filtration in a Brandel Cell Harvester through fiber glass filters made by Schleicher & Schuell GF 3362 pretreated with a solution of polyethylenimine at 0.5%. The filters are washed three times with three milliliters of buffer Tris-HCl 50 mM pH 7.4. The filters are transferred to flasks and 5 ml of Ecoscint H liquid scintillation cocktail are added to each flask. The flasks are allowed to reach equilibrium for several hours before counting with a Wallac Winspectral 1414 scintillation counter. Non-specific binding is determined in the presence of 100 μM of serotonin. Tests were made in triplicate. The inhibition constants (Ki, nM) were calculated by non-linear regression analysis using the program EBDA/LIGAND [Munson and Rodbard, Analytical Biochemistry, 1980, 107, 220].

T1 sequence (P50406 whole entry): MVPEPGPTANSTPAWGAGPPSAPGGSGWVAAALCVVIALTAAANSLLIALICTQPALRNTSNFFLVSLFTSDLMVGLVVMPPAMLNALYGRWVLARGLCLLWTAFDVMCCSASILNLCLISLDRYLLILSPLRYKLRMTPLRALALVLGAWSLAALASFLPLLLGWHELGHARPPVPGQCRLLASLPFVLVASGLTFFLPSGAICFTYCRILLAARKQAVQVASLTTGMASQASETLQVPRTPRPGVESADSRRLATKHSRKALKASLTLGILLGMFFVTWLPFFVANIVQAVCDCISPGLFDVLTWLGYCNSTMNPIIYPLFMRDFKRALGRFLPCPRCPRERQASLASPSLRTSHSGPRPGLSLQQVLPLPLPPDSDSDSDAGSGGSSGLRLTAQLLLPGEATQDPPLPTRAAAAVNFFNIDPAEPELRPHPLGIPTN

NCCc1c[nH]c2ccc(NS(=O)(=O)c3ccc4ccccc4c3)cc12 [Example 7, Naphthalene-2-sulfonic acid [3-(2-amino-ethyl)-1H-indol-5-yl]-amide] gave a Ki of 7.1 ± 1.1 nM, an inhibition at 0.01 µM of 66% and an inhibition at 0.1 µM of 84.6%.

Molecule NCCc1c[nH]c2ccc(NS(=O)(=O)c3ccc4c(Cl)cccc4c3)cc12 [Example 8, 5-Chloro-naphthalene-2-sulfonic acid [3-(2-amino-ethyl)-1H-indol-5-yl]-amide] has a Ki of 1.4 nM, an inhibition at 0.01 µM of 65.6% and an inhibition at 0.1 µM of 86.1%.

CCNCCc1c[nH]c2ccc(NS(=O)(=O)c3ccc4c(Cl)cccc4c3)cc12 [Example 3, 5-Chloro-naphthalene-2-sulfonic acid [3-(2-ethylamino-ethyl)-1H-indol-5-yl]-amide] showed a Ki of 2 nM, an inhibition at 0.01 µM of 60.1% and an inhibition at 0.1 µM of 82.9%.

CNCCc1cn(C)c2ccc(NS(=O)(=O)c3ccc4c(Cl)cccc4c3)cc12 [Example 6, 5-Chloro-naphthalene-2-sulfonic acid [1-methyl-3-(2-methylamino-ethyl)-1H-indol-5-yl]-amide] was tested, and the inhibition at 0.01 µM was 39.7% and the inhibition at 0.1 µM was 79.8%.

Molecule Cn1cc(CCN)c2cc(NS(=O)(=O)c3ccc4c(Cl)cccc4c3)ccc21 [Example 9, 5-Chloro-naphthalene-2-sulfonic acid [3-(2-amino-ethyl)-1-methyl-1H-indol-5-yl]-amide] has an inhibition at 0.01 µM of 34.1% and an inhibition at 0.1 µM of 78%.

CNCCc1c[nH]c2ccc(NS(=O)(=O)c3cccc4ccccc34)cc12 [Example 2, Naphthalene-1-sulfonic acid [3-(2-methylamino-ethyl)-1H-indol-5-yl]-amide] was tested, and the Ki was 2.9 nM, the inhibition at 0.01 µM was 83% and the inhibition at 0.1 µM was 91.2%.

Work on CCNCCc1c[nH]c2ccc(NS(=O)(=O)c3cccc4ccccc34)cc12 [Example 1, Naphthalene-1-sulfonic acid [3-(2-ethylamino-ethyl)-1H-indol-5-yl]-amide] yielded a Ki of 3 nM.

CNCCc1c[nH]c2ccc(NS(=O)(=O)c3ccc4c(Cl)cccc4c3)cc12 [Example 4, 5-Chloro-naphthalene-2-sulfonic acid [3-(2-methylamino-ethyl)-1H-indol-5-yl]-amide] gave a Ki of 2.1 ± 1.3 nM, an inhibition at 0.01 µM of 64.9% and an inhibition at 0.1 µM of 73.5%.

NCCc1c[nH]c2ccc(NS(=O)(=O)c3cccc4ccccc34)cc12 [Example 5, Naphthalene-1-sulfonic acid [3-(2-amino-ethyl)-1H-indol-5-yl]-amide] showed a Ki of 26.4 nM, an inhibition at 0.01 µM of 41.6% and an inhibition at 0.1 µM of 76.9%.
